What was measured:
Assay in all cases: relative viability (nuclei count vs DMSO), 5 days (fraction); higher = more cells survive
Metformin + Pemetrexed = compound: CN(C)C(=N)NC(=N)N [Metformin] + Nc1nc2[nH]cc(CCc3ccc(C(=O)N[C@@H](CCC(=O)O)C(=O)O)cc3)c2c(=O)[nH]1 [Pemetrexed] (partner 0.2 µM)
In short: (§1)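 Dosing by pin tool came one day after lung cancer cell lines were seeded in 1536-well plates, using either one drug or a fixed anchor-drug dose plus five library-drug doses (not always all listed) in √10 steps. After 5 days, nuclei were counted on 4× images. Relative viability is treated-well nuclei count divided by vehicle-well nuclei count, and values are medians of duplicate plates.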

Apatinib + Vorinostat = compound: N#CC1(c2ccc(NC(=O)c3cccnc3NCc3ccncc3)cc2)CCCC1 [Apatinib] + O=C(CCCCCCC(=O)Nc1ccccc1)NO [Vorinostat] (partner 1 µM)
In short: as §1

Apatinib + Pictilisib = compound: N#CC1(c2ccc(NC(=O)c3cccnc3NCc3ccncc3)cc2)CCCC1 [Apatinib] + CS(=O)(=O)N1CCN(Cc2cc3nc(-c4cccc5[nH]ncc45)nc(N4CCOCC4)c3s2)CC1 [Pictilisib] (partner 1 µM)
In short: as §1

Metformin + Olaparib = compound: CN(C)C(=N)NC(=N)N [Metformin] + O=C(c1cc(Cc2n[nH]c(=O)c3ccccc23)ccc1F)N1CCN(C(=O)C2CC2)CC1 [Olaparib] (partner 8 µM)
In short: as §1

Cell Line | relative viability (Metformin + Pemetrexed; first compound 10 µM) | relative viability (Metformin + Pemetrexed; first compound 31.62 µM) | relative viability (Metformin + Pemetrexed; first compound 100 µM) | relative viability (Metformin + Pemetrexed; first compound 316.23 µM) | relative viability (Metformin + Pemetrexed; first compound 1000 µM) | relative viability (Apatinib + Vorinostat; first compound 0.08 µM) | relative viability (Apatinib + Vorinostat; first compound 0.253 µM) | relative viability (Apatinib + Vorinostat; first compound 0.8 µM) | relative viability (Apatinib + Vorinostat; first compound 2.53 µM) | relative viability (Apatinib + Vorinostat; first compound 8 µM) | relative viability (Apatinib + Pictilisib; first compound 0.08 µM) | relative viability (Apatinib + Pictilisib; first compound 0.253 µM) | relative viability (Apatinib + Pictilisib; first compound 0.8 µM) | relative viability (Apatinib + Pictilisib; first compound 2.53 µM) | relative viability (Apatinib + Pictilisib; first compound 8 µM) | relative viability (Metformin + Olaparib; first compound 10 µM) | relative viability (Metformin + Olaparib; first compound 31.62 µM) | relative viability (Metformin + Olaparib; first compound 100 µM) | relative viability (Metformin + Olaparib; first compound 316.23 µM) | relative viability (Metformin + Olaparib; first compound 1000 µM)
NCI-H1734 | 0.49 | 0.418 | 0.461 | 0.456 | 0.455 | 0.935 | 0.947 | 0.773 | 0.727 | 0.728 | 0.478 | 0.491 | 0.466 | 0.469 | 0.416 | 0.473 | 0.636 | 0.584 | 0.501 | 0.616
NCI-H2405 | – | 1.16 | 1.04 | 0.619 | 0.679 | 1.21 | 1.15 | 1.06 | 0.951 | 1.03 | 0.343 | 0.458 | 0.439 | 0.402 | 0.35 | – | 0.905 | 0.813 | 0.635 | 0.506
NCI-H2009 | 0.874 | 0.943 | 0.891 | 0.814 | 0.891 | 0.701 | 0.776 | 0.669 | 0.627 | 0.48 | 1.12 | 0.727 | 0.737 | 0.644 | 0.501 | 0.612 | 0.69 | 0.604 | 0.568 | 0.705
NCI-H1666 | 0.825 | 0.862 | 0.854 | 0.871 | 0.928 | 1.03 | 1.03 | 1.05 | 0.976 | 0.915 | 0.408 | 0.413 | 0.456 | 0.418 | 0.54 | 0.78 | 0.76 | 0.834 | 0.726 | 0.764
UMC-11 | 0.907 | 0.697 | 0.81 | 0.791 | 0.855 | 0.403 | 0.397 | 0.366 | 0.349 | 0.341 | 0.878 | 0.731 | 0.688 | 0.76 | 0.686 | 0.337 | 0.269 | 0.31 | 0.332 | 0.276
NCI-H1755 | 0.416 | 0.443 | 0.392 | 0.34 | 0.376 | 0.846 | 0.7 | 0.783 | 0.705 | 0.586 | 0.443 | 0.416 | 0.447 | 0.461 | 0.376 | 0.735 | 0.774 | 0.79 | 0.716 | 0.829
201T | – | 0.329 | 0.313 | 0.289 | 0.353 | 0.724 | 0.918 | 0.898 | 0.969 | 0.966 | 0.748 | 0.643 | 0.662 | 0.604 | 0.663 | – | 0.802 | 0.815 | 0.775 | 0.822

Reference: the supplement of paper PMC10307832
